# Residues, ends and D or L forms follow the SMILES beside them. *: point of attachment. FITC = O=C1OC2(c3ccc(O)cc3Oc3cc(O)ccc32)c2ccc(NC(=S)*)cc21
# Legend:
# X11 PTB domain = conditions: Discussion; read-out: dissociation constant, X11 (given jointly for X11/Fe65); cited from earlier work
# From the text: (§1) This difference in affinity may be advantageous for AIDA1 to participate in signaling contexts beyond APP. From a peptide array study, we determined that the consensus sequence is less stringent NxxY versus NPxY for others in the same Dab-like class of PTB domains. Thus, at the neuronal synapse, AIDA1 could serve as a versatile collator and ...
# AIDA1 PTB domain = experiment: Binding of APP peptides to the AIDA1 PTB domain; design: species or system human
# From the text: A gene fragment encoding the PTB domain (aa. 1043–1195) of human AIDA1b was PCR amplified with NdeI and EcoRI restriction sites and was subsequently inserted into pET28a (Novagen). The expressed protein contained an amino terminal 6xHis tag and intervening thrombin site. Other PTB domain fragments that lacked either the N-terminal 6xHis tag or the entire affinity tag along with 16 additional unstructured residues were also as […] as the fragment chosen for this study. To align the PTB domain described in this study with numerous AIDA1 isoforms, S1 in the PTB domain structure corresponds to S1045 in AIDA1b, the longest isoform. A one-liter fermentation in a minimal medium containing 1 g of ^15NH4Cl and 4 g of ^13C-glucose was sufficient to produce 5–10 mg of purified protein. Purification was achieved by Nickel-NTA affinity chromatography (Qiagen) and gel filtration chromatography on a S-100 HR 16/60 size exclusion column (GE Biosciences). Final buffer conditions were 20 mM Na-phosphate, pH 7.8, 0.15 M NaCl, 0.05% (w/v) NaN3. […] A 6xHis tagged PTB domain variant containing all five substitutions (PTB5M) was produced by DNA2.0 (Menlo Park, CA) by direct gene synthesis in the expression vector, pJExpress401 (T5 promoter plus kanamycin resistance). A 6xHis-tagged, APP-peptide ([…]) fused to the amino terminus of the AIDA1 PTB5M mutant with an intervening thrombin site was also synthesized by DNA2.0 in pJExpress401.
# (§2) Fluorescein isothiocyanate (FITC) labeled peptides spanning portions of APP were produced and purified by CanPeptide (Montreal, QC) for fluorescence anisotropy based binding studies at 25°C using an Agilent Eclipse spectrophotometer equipped with a manual polarizer accessory. Buffer conditions were similar to those used for NMR spectroscopy. […] Anisotropy was calculated from the relationship (Iparallel–GIperp)/(Iparallel[…]) and normalized with the blank experiment. The equilibrium dissociation constant (KD) was calculated by direct fitting the titration curves with a standard two-state relationship using proFit 6.2 (Quantsoft).
# Fe65 PTB2 domain = conditions: Discussion; read-out: dissociation constant, Fe65 (given jointly for X11/Fe65); cited from earlier work
# From the text: as §1, with “One threonine (T668) in APP located in this extended region is susceptible to phosphorylation and acts as a switch that repartitions the cis and trans states of the adjacent proline (P669) that, in turn, affects the ability of Fe65 to engage its ligand. […] This” for “This”
# [1] = target: T1, AIDA1 PTB domain, PTB5M mutant (Homo sapiens, UniProt Q7Z6G8, F1057A/F1065A/Y1047A/Y1111A/Y1172A); experiment: Fluorescence anisotropy binding of FITC-labeled APP peptides to PTB5M; conditions: FITC-labeled peptide, 25°C, buffer similar to NMR (20 mM Na-phosphate, pH 7.8, 0.15 M NaCl), two-state fit, n = 4 (APP-32), n = 2 (APP-17), n = 1 (APP-17{pY})
# T1 construct: A gene fragment encoding the PTB domain (aa. 1043–1195) of human AIDA1b; 6xHis; made in house; host or cells: gene synthesised by DNA2.0 in pJExpress401
# T1 sequence (Q7Z6G8 1043-1195 Y1047A/F1057A/F1065A/Y1111A/Y1172A): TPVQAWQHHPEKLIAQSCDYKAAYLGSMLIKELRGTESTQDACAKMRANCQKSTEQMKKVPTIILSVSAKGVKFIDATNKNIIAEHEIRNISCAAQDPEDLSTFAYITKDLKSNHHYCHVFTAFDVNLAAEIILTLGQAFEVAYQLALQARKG
# From the text: (§3) A gene fragment encoding the PTB domain (aa. 1043–1195) of human AIDA1b was PCR amplified with NdeI and EcoRI restriction sites and was subsequently inserted into pET28a (Novagen). The expressed protein contained an amino terminal 6xHis tag and intervening thrombin site. Other PTB domain fragments that lacked either the N-terminal 6xHis tag or the entire affinity tag along with 16 additional unstructured residues were also as […] as the fragment chosen for this study. To align the PTB domain described in this study with numerous AIDA1 isoforms, S1 in the PTB domain structure corresponds to S1045 in AIDA1b, the longest isoform. A one-liter fermentation in a minimal medium containing 1 g of ^15NH4Cl and 4 g of ^13C-glucose was sufficient to produce 5–10 mg of purified protein. […]
# as §2, with “accessory.” for “accessory. Buffer conditions were similar to those used for NMR spectroscopy.”
# [2] = target: T2, AIDA1 PTB domain, Y70A mutant (PTBY70A) (Homo sapiens, UniProt Q7Z6G8, Y1111A); experiment: Fluorescence anisotropy binding of FITC-labeled APP peptides to PTBY70A; conditions: FITC-labeled peptide, 25°C, buffer similar to NMR (20 mM Na-phosphate, pH 7.8, 0.15 M NaCl), two-state fit, n = 4 (APP-32), n = 2 (APP-17)
# T2 construct: A gene fragment encoding the PTB domain (aa. 1043–1195) of human AIDA1b; 6xHis tag with thrombin site (N); made in house; host or cells: pET28a vector
# T2 sequence (Q7Z6G8 1040-1192 Y1111A): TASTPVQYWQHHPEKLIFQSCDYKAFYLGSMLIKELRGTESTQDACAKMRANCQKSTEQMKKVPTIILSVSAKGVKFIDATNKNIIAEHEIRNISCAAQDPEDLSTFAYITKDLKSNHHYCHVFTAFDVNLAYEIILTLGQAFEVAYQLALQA
# From the text: as §3
# as §2, with “accessory.” for “accessory. Buffer conditions were similar to those used for NMR spectroscopy.”
compound,measurement,setting,value
amyloid protein precursor (APP): amyloid protein precursor (APP),Kd,X11 PTB domain,< 1 µM
same,Kd,AIDA1 PTB domain; approximate value of text/abstract,~10 µM
same,affinity of the AIDA1 PTB domain (in words),AIDA1 PTB domain; relative to similar APP binding proteins such as X11/Fe65,moderate
same,Kd,Fe65 PTB2 domain,< 1 µM
CSCC[C@H](NC(=O)[C@H](CCC(N)=O)NC(=O)[C@H](CCC(=O)O)NC(=O)[C@H](Cc1ccccc1)NC(=O)[C@H](Cc1ccccc1)NC(=O)[C@H](CCCCN)NC(=O)[C@H](Cc1ccc(O)cc1)NC(=O)[C@@H](NC(=O)[C@@H]1CCCN1C(=O)[C@H](CC(N)=O)NC(=O)[C@H](CCC(=O)O)NC(=O)[C@H](Cc1ccc(O)cc1)NC(=O)CNC(=O)[C@H](CC(N)=O)NC(=O)[C@H](CCC(N)=O)NC(=O)[C@H](CCC(N)=O)NC(=O)[C@H](CCSC)NC(=O)[C@H](CCCCN)NC(=O)[C@H](CO)NC(=O)[C@H](CC(C)C)NC(=O)[C@H](Cc1c[nH]cn1)NC(=O)[C@H](CCCNC(=N)N)NC(=O)[C@H](CCC(=O)O)NC(=O)[C@H](CCC(=O)O)NC(=O)[C@@H]1CCCN1C(=O)[C@@H](NC(=O)[C@@H](NC(=O)[C@H](C)NC(=O)[C@H](C)NC(=O)[C@H](CC(=O)O)NC(=O)CNC(=O)CN)C(C)C)[C@@H](C)O)[C@@H](C)O)C(=O)N[C@@H](CCC(N)=O)C(=O)N[C@@H](CC(N)=O)C(=O)O [APP-32] (H-GGDAAVTPEERHLSKMQQNGYENPTYKFFEQMQN-OH),Kd,[1],14.8 ± 1 µM
same,Kd,[2],13.3 ± 1.5 µM
CSCC[C@H](NC(=O)[C@H](CCC(N)=O)NC(=O)[C@H](CCC(=O)O)NC(=O)[C@H](Cc1ccccc1)NC(=O)[C@H](Cc1ccccc1)NC(=O)[C@H](CCCCN)NC(=O)[C@H](Cc1ccc(O)cc1)NC(=O)[C@@H](NC(=O)[C@@H]1CCCN1C(=O)[C@H](CC(N)=O)NC(=O)[C@H](CCC(=O)O)NC(=O)[C@H](Cc1ccc(O)cc1)NC(=O)CNC(=O)[C@H](CC(N)=O)NC(=O)[C@H](CCC(N)=O)NC(=O)CNC(=O)CNC(=S)Nc1ccc2c(c1)C(=O)OC21c2ccc(O)cc2Oc2cc(O)ccc21)[C@@H](C)O)C(=O)N[C@@H](CCC(N)=O)C(=O)N[C@@H](CC(N)=O)C(=O)O [APP-17] ({FITC}-GGQNGYENPTYKFFEQMQN-OH; C-terminus assumed),"binding affinity to the AIDA1 PTB domain, long versus short APP peptide","AIDA1 PTB domain; fluorescence anisotropy titration, in words",no differences in binding affinity

# Source: paper PMC3683042, “Solution Structure and Peptide Binding of the PTB Domain from the AIDA1 Postsynaptic Signaling Scaffolding Protein” (PLoS ONE, 2013)
